Assay results: US20240270762A1, “PENICILLIN-BINDING PROTEIN INHIBITORS” (priority 2021, published 2024)

Tests used:
A. baumannii PBP1a = target: T1, A. baumannii PBP1a (Acinetobacter baumannii, UniProt A0ABX6CK30); experiment: Bocillin-FL competition binding via gel filtration, A. baumannii PBP1a; settings: competition binding assay using Bocillin-FL via gel filtration; read-out: A. baumannii PBP1a Potency
T1 sequence (A0ABX6CK30 1-851): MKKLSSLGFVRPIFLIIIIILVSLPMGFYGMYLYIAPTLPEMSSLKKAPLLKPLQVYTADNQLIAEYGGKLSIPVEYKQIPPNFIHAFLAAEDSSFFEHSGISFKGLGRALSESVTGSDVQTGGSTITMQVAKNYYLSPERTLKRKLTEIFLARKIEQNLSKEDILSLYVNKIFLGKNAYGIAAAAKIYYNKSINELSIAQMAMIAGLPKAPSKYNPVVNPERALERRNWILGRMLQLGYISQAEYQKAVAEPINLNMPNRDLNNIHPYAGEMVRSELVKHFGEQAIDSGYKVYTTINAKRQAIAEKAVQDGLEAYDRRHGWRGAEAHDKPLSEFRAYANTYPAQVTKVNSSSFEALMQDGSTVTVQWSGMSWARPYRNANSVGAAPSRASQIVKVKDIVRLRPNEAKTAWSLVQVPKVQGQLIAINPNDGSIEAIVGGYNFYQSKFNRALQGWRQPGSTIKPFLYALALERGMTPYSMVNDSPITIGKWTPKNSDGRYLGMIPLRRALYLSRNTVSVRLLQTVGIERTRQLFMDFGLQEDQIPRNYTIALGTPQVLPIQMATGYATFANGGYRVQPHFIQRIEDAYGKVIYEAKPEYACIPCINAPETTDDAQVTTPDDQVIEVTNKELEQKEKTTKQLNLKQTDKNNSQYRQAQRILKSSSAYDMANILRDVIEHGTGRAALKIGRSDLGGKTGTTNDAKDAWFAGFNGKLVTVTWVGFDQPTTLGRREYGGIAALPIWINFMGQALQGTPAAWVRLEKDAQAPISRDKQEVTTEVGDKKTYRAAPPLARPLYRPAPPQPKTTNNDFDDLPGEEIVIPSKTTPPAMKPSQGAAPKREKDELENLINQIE
In short: (§1)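 Enzyme pre-incubated with increasing inhibitor concentrations, then Bocillin-FL added for 15 min further incubation. Bocillin-FL-bound PBP separated by gel filtration and fluorescence read. EC50 from fitting fraction PBP bound vs inhibitor concentration to a Hill-type equation (ymin, ymax, n).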

B. pseudomallei Bp82 = experiment: microbe, parasite or virus in culture; type: cell-based; settings: Burkholderia pseudomallei, BP82, read-out: Minimum inhibitory concentration, B. pseudomallei Bp82
A. baumannii PBP2 = A. baumannii PBP2 (Acinetobacter baumannii, UniProt D0C8Z9); experiment: Bocillin-FL competition binding via gel filtration, A. baumannii PBP2
Sequence of A. baumannii PBP2 (D0C8Z9 whole entry): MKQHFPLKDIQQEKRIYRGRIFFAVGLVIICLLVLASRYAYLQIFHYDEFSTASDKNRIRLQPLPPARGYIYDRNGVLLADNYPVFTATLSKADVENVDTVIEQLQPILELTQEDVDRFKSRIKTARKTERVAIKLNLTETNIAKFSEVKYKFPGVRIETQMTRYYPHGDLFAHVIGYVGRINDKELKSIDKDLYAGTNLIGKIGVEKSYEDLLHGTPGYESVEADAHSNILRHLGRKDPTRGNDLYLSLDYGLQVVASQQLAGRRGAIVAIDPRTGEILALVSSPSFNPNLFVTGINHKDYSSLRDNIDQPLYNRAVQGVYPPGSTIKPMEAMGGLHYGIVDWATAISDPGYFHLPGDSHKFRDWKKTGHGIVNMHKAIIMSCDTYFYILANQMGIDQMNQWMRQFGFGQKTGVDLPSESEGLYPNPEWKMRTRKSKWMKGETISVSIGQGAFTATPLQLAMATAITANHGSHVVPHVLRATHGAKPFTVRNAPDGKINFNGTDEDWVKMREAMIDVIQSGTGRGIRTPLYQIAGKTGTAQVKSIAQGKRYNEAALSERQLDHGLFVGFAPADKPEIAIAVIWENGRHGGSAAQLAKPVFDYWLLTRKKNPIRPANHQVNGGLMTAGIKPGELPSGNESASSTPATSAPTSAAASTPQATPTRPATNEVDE
In short: as §1

SMILES | EC50 (A. baumannii PBP1a) | MIC (B. pseudomallei Bp82) | EC50 (A. baumannii PBP2)
O=C(NCCN1CCN(C(=O)NC(C(=O)N[C@H]2Cc3ccc(F)c(C(=O)O)c3OB2O)c2cc(F)c(O)c(O)c2Cl)C(=O)C1=O)c1ccncc1 (stereo partly drawn) [Example 216, (3R)-3-(2-(2-chloro-5-fluoro-3,4-dihydroxyphenyl)-2-(4-(2-(isonicotinamido)ethyl)-2,3-dioxopiperazine-1-carboxamido)acetamido)-7-fluoro-2-hydroxy-3,4-dihydro-2H-benzo[e][1,2]oxaborinine-8-carboxylic acid] | 10 to 50 µM | < 1 µg/mL | 10 to 50 µM
O=C(NCCN1CCN(C(=O)N[C@@H](C(=O)N[C@H]2Cc3ccc(F)c(C(=O)O)c3OB2O)c2cc(F)c(O)c(O)c2Cl)C(=O)C1=O)Nc1cccnc1 [Example 222, (R)-3-((R)-2-(2-chloro-5-fluoro-3,4-dihydroxyphenyl)-2-(2,3-dioxo-4-(2-(3-(pyridin-3-yl)ureido)ethyl)piperazine-1-carboxamido)acetamido)-7-fluoro-2-hydroxy-3,4-dihydro-2H-benzo[e][1,2]oxaborinine-8-carboxylic acid] | 10 to 50 µM | < 1 µg/mL | 10 to 50 µM
O=C(NCCCN1CCN(C(=O)NC(C(=O)N[C@H]2Cc3ccc(F)c(C(=O)O)c3OB2O)c2cc(F)c(O)c(O)c2Cl)C(=O)C1=O)Nc1ccc(O)cc1 (stereo partly drawn) [Example 227, (3R)-3-(2-(2-chloro-5-fluoro-3,4-dihydroxyphenyl)-2-(4-(3-(3-(4-hydroxyphenyl)ureido)propyl)-2,3-dioxopiperazine-1-carboxamido)acetamido)-7-fluoro-2-hydroxy-3,4-dihydro-2H-benzo[e][1,2]oxaborinine-8-carboxylic acid] | 10 to 50 µM | < 1 µg/mL | 10 to 50 µM
O=C(NCCCN1CCN(C(=O)NC(C(=O)N[C@H]2Cc3ccc(F)c(C(=O)O)c3OB2O)c2cc(F)c(O)c(O)c2Cl)C(=O)C1=O)Nc1ccncc1 (stereo partly drawn) [Example 228, (3R)-3-(2-(2-chloro-5-fluoro-3,4-dihydroxyphenyl)-2-(2,3-dioxo-4-(3-(3-(pyridin-4-yl)ureido)propyl)piperazine-1-carboxamido)acetamido)-7-fluoro-2-hydroxy-3,4-dihydro-2H-benzo[e][1,2]oxaborinine-8-carboxylic acid] | 10 to 50 µM | < 1 µg/mL | 10 to 50 µM
O=C(NCCCN1CCN(C(=O)N[C@@H](C(=O)N[C@H]2Cc3ccc(F)c(C(=O)O)c3OB2O)c2cc(F)c(O)c(O)c2Cl)C1=O)c1cccc(O)c1 [Example 255, (R)-3-((R)-2-(2-chloro-5-fluoro-3,4-dihydroxyphenyl)-2-(3-(3-(3-hydroxybenzamido)propyl)-2-oxoimidazolidine-1-carboxamido)acetamido)-7-fluoro-2-hydroxy-3,4-dihydro-2H-benzo[e][1,2]oxaborinine-8-carboxylic acid] | 10 to 50 µM | < 1 µg/mL | 10 to 50 µM
O=C(NCCCN1CCN(C(=O)N[C@@H](C(=O)N[C@H]2Cc3ccc(F)c(C(=O)O)c3OB2O)c2cc(F)c(O)c(O)c2Cl)C1=O)Nc1cccc(O)c1 [Example 258, (R)-3-((R)-2-(2-chloro-5-fluoro-3,4-dihydroxyphenyl)-2-(3-(3-(3-(3-hydroxyphenyl)ureido)propyl)-2-oxoimidazolidine-1-carboxamido)acetamido)-7-fluoro-2-hydroxy-3,4-dihydro-2H-benzo[e][1,2]oxaborinine-8-carboxylic acid] | 10 to 50 µM | < 1 µg/mL | < 10 µM
O=C(NCCCN1CCN(C(=O)NC(C(=O)N[C@H]2Cc3ccc(F)c(C(=O)O)c3OB2O)c2cc(F)c(O)c(O)c2Cl)C1=O)Nc1cccnc1 (stereo partly drawn) [Example 259, (3R)-3-(2-(2-chloro-5-fluoro-3,4-dihydroxyphenyl)-2-(2-oxo-3-(3-(3-(pyridin-3-yl)ureido)propyl)imidazolidine-1-carboxamido)acetamido)-7-fluoro-2-hydroxy-3,4-dihydro-2H-benzo[e][1,2]oxaborinine-8-carboxylic acid] | 10 to 50 µM | < 1 µg/mL | < 10 µM
